In patent US20020111274A1, “1-alkyl-3-[1-(substituted phenyl) benzotriazol-6-yl] uracils” (BASF Aktiengesellschaft, priority 2000, published 2002):

What was measured:
Parameters in all cases: scale not given here
Details in all cases: rated two - three weeks after treatment
ABUTH Velvetleaf = experiment: Postemergence herbicidal evaluation, ABUTH; format: in vivo, Abutilon theophrasti, Medic.
Procedure, shortened: (§1)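 Postemergence spray, 40 psi nozzle, on ~2-week seedlings. Carrier: acetone/water 80/20, 1.0% methylated seed oil; dose ~0.006–0.400 kg/ha. Scored visually at 2–3 weeks.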

AMBEL Ragweed, Common = experiment: Postemergence herbicidal evaluation, AMBEL; format: in vivo, Ambrosia artemisifolia, L.
Procedure, shortened: as §1

CASOB Sicklepod = experiment: Postemergence herbicidal evaluation, CASOB; format: in vivo, Cassia obtusifolia, L.
Procedure, shortened: as §1

[1] = system: CHEAL Lambsquarters, Common; experiment: Postemergence herbicidal evaluation, CHEAL; format: in vivo, Chenopodium album, L.
Procedure, shortened: as §1

ECHOG Barnyardgrass = experiment: Postemergence herbicidal evaluation, ECHOG; format: in vivo, Echinochloa crus-galli, (L.) Beau
Procedure, shortened: as §1

GALAP Galium = experiment: Postemergence herbicidal evaluation, GALAP; format: in vivo, Galium aparine
Procedure, shortened: as §1

[2] = system: IPOHE Morningglory, Ivyleaf; experiment: Postemergence herbicidal evaluation, IPOHE; format: in vivo, Ipomoea hederacea, (L.) Jacq.
Procedure, shortened: as §1

SETVI Foxtail, Green = experiment: Postemergence herbicidal evaluation, SETVI; format: in vivo, Setaria viridis, (L.) Beau
Procedure, shortened: as §1

GLXMAW Soybean, Williams = experiment: Postemergence herbicidal evaluation, GLXMAW; format: in vivo, Glycine max, (L.) Merr. cv Williams
Procedure, shortened: as §1

[3] = system: TRZAWR Wheat, Winter, cv Riband; experiment: Postemergence herbicidal evaluation, TRZAWR; format: in vivo, Triticum aestivum
Procedure, shortened: as §1

ORYSAT Rice, Tebonnet = experiment: Postemergence herbicidal evaluation, ORYSAT; format: in vivo, Oryza sativa, (L.)
Procedure, shortened: as §1

ZEAMX Corn, Field = experiment: Postemergence herbicidal evaluation, ZEAMX; format: in vivo, Zea mays, L. (Sammel-Bezeichnung)
Procedure, shortened: as §1

SMILES: COC(=O)COc1ccc(-n2nnc3cc(F)c(-n4c(=O)cc(C(F)(F)F)n(C)c4=O)cc32)cc1 [Example 45]
- Postemergence herbicidal rating ABUTH (ABUTH Velvetleaf; rate 0.008 kg/ha): 9.0
- Postemergence herbicidal rating ABUTH (ABUTH Velvetleaf; rate 0.016 kg/ha): 9.0
- Postemergence herbicidal rating ABUTH (ABUTH Velvetleaf; rate 0.032 kg/ha): 9.0
- Postemergence herbicidal rating ABUTH (ABUTH Velvetleaf; rate 0.062 kg/ha): 9.0
- Postemergence herbicidal rating AMBEL (AMBEL Ragweed, Common; rate 0.008 kg/ha): 2.0
- Postemergence herbicidal rating AMBEL (AMBEL Ragweed, Common; rate 0.016 kg/ha): 3.0
- Postemergence herbicidal rating AMBEL (AMBEL Ragweed, Common; rate 0.032 kg/ha): 7.0
- Postemergence herbicidal rating AMBEL (AMBEL Ragweed, Common; rate 0.062 kg/ha): 9.0
- Postemergence herbicidal rating CASOB (CASOB Sicklepod; rate 0.008 kg/ha): 0.0
- Postemergence herbicidal rating CASOB (CASOB Sicklepod; rate 0.016 kg/ha): 0.0
- Postemergence herbicidal rating CASOB (CASOB Sicklepod; rate 0.032 kg/ha): 4.0
- Postemergence herbicidal rating CASOB (CASOB Sicklepod; rate 0.062 kg/ha): 5.0
- Postemergence herbicidal rating CHEAL ([1]; rate 0.008 kg/ha): 2.0
- Postemergence herbicidal rating CHEAL ([1]; rate 0.016 kg/ha): 4.0
- Postemergence herbicidal rating CHEAL ([1]; rate 0.032 kg/ha): 7.0
- Postemergence herbicidal rating CHEAL ([1]; rate 0.062 kg/ha): 7.0
- Postemergence herbicidal rating ECHCG (ECHOG Barnyardgrass; rate 0.008 kg/ha): 0.0
- Postemergence herbicidal rating ECHCG (ECHOG Barnyardgrass; rate 0.016 kg/ha): 5.0
- Postemergence herbicidal rating ECHCG (ECHOG Barnyardgrass; rate 0.032 kg/ha): 8.0
- Postemergence herbicidal rating ECHCG (ECHOG Barnyardgrass; rate 0.062 kg/ha): 9.0
- Postemergence herbicidal rating GALAP (GALAP Galium; rate 0.008 kg/ha): 0.0
- Postemergence herbicidal rating GALAP (GALAP Galium; rate 0.016 kg/ha): 0.0
- Postemergence herbicidal rating GALAP (GALAP Galium; rate 0.032 kg/ha): 1.0
- Postemergence herbicidal rating GALAP (GALAP Galium; rate 0.062 kg/ha): 3.0
- Postemergence herbicidal rating IPOHE ([2]; rate 0.008 kg/ha): 9.0
- Postemergence herbicidal rating IPOHE ([2]; rate 0.016 kg/ha): 9.0
- Postemergence herbicidal rating IPOHE ([2]; rate 0.032 kg/ha): 9.0
- Postemergence herbicidal rating IPOHE ([2]; rate 0.062 kg/ha): 9.0
- Postemergence herbicidal rating SETVI (SETVI Foxtail, Green; rate 0.008 kg/ha): 3.0
- Postemergence herbicidal rating SETVI (SETVI Foxtail, Green; rate 0.016 kg/ha): 8.0
- Postemergence herbicidal rating SETVI (SETVI Foxtail, Green; rate 0.032 kg/ha): 9.0
- Postemergence herbicidal rating SETVI (SETVI Foxtail, Green; rate 0.062 kg/ha): 9.0
- Postemergence herbicidal rating GLXMAW (GLXMAW Soybean, Williams; rate 0.008 kg/ha): 6.0
- Postemergence herbicidal rating GLXMAW (GLXMAW Soybean, Williams; rate 0.016 kg/ha): 6.5
- Postemergence herbicidal rating GLXMAW (GLXMAW Soybean, Williams; rate 0.032 kg/ha): 8.0
- Postemergence herbicidal rating GLXMAW (GLXMAW Soybean, Williams; rate 0.062 kg/ha): 8.0
- Postemergence herbicidal rating TRZAWR ([3]; rate 0.008 kg/ha): 4.0
- Postemergence herbicidal rating TRZAWR ([3]; rate 0.016 kg/ha): 6.0
- Postemergence herbicidal rating TRZAWR ([3]; rate 0.032 kg/ha): 6.0
- Postemergence herbicidal rating TRZAWR ([3]; rate 0.062 kg/ha): 8.0
- Postemergence herbicidal rating ORYSAT (ORYSAT Rice, Tebonnet; rate 0.008 kg/ha): 0.5
- Postemergence herbicidal rating ORYSAT (ORYSAT Rice, Tebonnet; rate 0.016 kg/ha): 1.0
- Postemergence herbicidal rating ORYSAT (ORYSAT Rice, Tebonnet; rate 0.032 kg/ha): 2.0
- Postemergence herbicidal rating ORYSAT (ORYSAT Rice, Tebonnet; rate 0.062 kg/ha): 3.5
- Postemergence herbicidal rating ZEAMX (ZEAMX Corn, Field; rate 0.008 kg/ha): 7.5
- Postemergence herbicidal rating ZEAMX (ZEAMX Corn, Field; rate 0.016 kg/ha): 8.0
- Postemergence herbicidal rating ZEAMX (ZEAMX Corn, Field; rate 0.032 kg/ha): 8.0
